Data as given in PubChem BioAssay (NCI).
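Each compound was tested at five concentrations against cells in 96-well plates for 48 hours. TGI: concentration producing complete growth inhibition.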

Tests used:
Assay in all cases: NCI-60 cell line screen, 48 h
LXFL 529 NSCLC = test system: LXFL 529 NSCLC
TK-10 renal = test system: TK-10 renal
HOP-62 NSCLC = test system: HOP-62 NSCLC
SF-539 CNS = test system: SF-539 CNS
DLD-1 colon = test system: DLD-1 colon
M19-MEL melanoma = test system: M19-MEL melanoma
SNB-78 CNS = test system: SNB-78 CNS
DMS 114 small cell lung = test system: DMS 114 small cell lung
K-562 leukemia = test system: K-562 leukemia
DMS 273 small cell lung = test system: DMS 273 small cell lung
SNB-19 CNS = test system: SNB-19 CNS
CAKI-1 renal = test system: CAKI-1 renal
RXF-631 renal = test system: RXF-631 renal
XF 498 CNS = test system: XF 498 CNS
BT-549 breast = test system: BT-549 breast
MDA-MB-231 breast = test system: MDA-MB-231 breast
MCF7 breast = test system: MCF7 breast
RXF 393 renal = test system: RXF 393 renal
KM20L2 colon = test system: KM20L2 colon
HOP-18 NSCLC = test system: HOP-18 NSCLC

Structure (SMILES)	TGI (LXFL 529 NSCLC)	TGI (TK-10 renal)	TGI (HOP-62 NSCLC)	TGI (SF-539 CNS)	TGI (DLD-1 colon)	TGI (M19-MEL melanoma)	TGI (SNB-78 CNS)	TGI (DMS 114 small cell lung)	TGI (K-562 leukemia)	TGI (DMS 273 small cell lung)	TGI (SNB-19 CNS)	TGI (CAKI-1 renal)	TGI (RXF-631 renal)	TGI (XF 498 CNS)	TGI (BT-549 breast)	TGI (MDA-MB-231 breast)	TGI (MCF7 breast)	TGI (RXF 393 renal)	TGI (KM20L2 colon)	TGI (HOP-18 NSCLC)
CCCCCCCCCCCCCCCCOCC(CP(=O)([O-])OCC[n+]1ccccc1)OC (stereo not drawn)	23.5 µM	8.09 µM	25.2 µM	28.4 µM	11.1 µM	25.2 µM	31.1 µM	26.5 µM	32.8 µM	5.63 µM	21.6 µM	22.2 µM	28.9 µM	24.7 µM						
CC(C)(C)OC(=O)N1CCC2(C)CC(=O)CC=C12 (stereo not drawn)		> 100 µM	> 100 µM	> 100 µM					> 100 µM		> 100 µM	> 100 µM			> 100 µM	> 100 µM	> 100 µM	> 100 µM		
C[C@]12C[C@@H](c3ccccc3)Nc3ccccc3N1C(c1ccccc1)=NO2		> 100 µM	> 100 µM	> 100 µM					> 100 µM		> 100 µM	> 100 µM			90.3 µM	> 100 µM	> 100 µM	> 100 µM		
CC(=O)C(CN(Cc1ccccc1)Cc1ccccc1)C(c1ccccc1)c1c(O)c2ccccc2oc1=O (stereo not drawn)	> 100 µM	> 100 µM	> 100 µM	> 100 µM	> 100 µM	> 100 µM	> 100 µM		> 100 µM		> 100 µM	> 100 µM	> 100 µM	> 100 µM				> 100 µM	> 100 µM	
CC(O)c1ccc[n+](Cc2ccccc2)c1 (stereo not drawn)	> 400 µM	> 400 µM	> 400 µM	> 400 µM	> 400 µM	> 400 µM		> 400 µM	> 400 µM	> 400 µM	> 400 µM	> 400 µM	> 400 µM	> 400 µM				> 400 µM	> 400 µM	> 400 µM
COc1ccc(N2C(=O)C(C)SC2c2cc3cc(Br)ccc3nc2Cl)cc1 (stereo not drawn)		91.4 µM	> 100 µM	55.7 µM					> 100 µM		> 100 µM	> 100 µM			99.7 µM	> 100 µM	> 100 µM	93.6 µM		
CC(C)C(Sc1nc(-c2ccccc2)c(-c2ccccc2)[nH]1)C(=O)NN (stereo not drawn)	> 100 µM	> 100 µM	> 100 µM	> 100 µM	> 100 µM	> 100 µM	> 100 µM	> 100 µM		> 100 µM	> 100 µM	> 100 µM		> 100 µM				> 100 µM	> 100 µM	
N#Cc1cc(-c2nc3c(F)cccc3s2)ccc1N		> 100 µM	> 100 µM	> 100 µM					> 100 µM		> 100 µM	> 100 µM			> 100 µM	> 100 µM	4.06 µM	> 100 µM		
CN(C)CC1CCCC(CN(C)C)C1=NOC(=O)c1ccccc1 (stereo not drawn)	> 100 µM	> 100 µM	> 100 µM	> 100 µM	> 100 µM	> 100 µM	> 100 µM	> 100 µM	> 100 µM	> 100 µM	> 100 µM			> 100 µM					> 100 µM	> 100 µM
CC1(C)C/C(=N/O)c2c(nc3ccc4ccccc4c3c2-c2ccc(Cl)cc2)C1		33.9 µM	92.2 µM	36.4 µM					65.6 µM		> 100 µM	26.3 µM			30.9 µM	24.4 µM	24.1 µM	39.4 µM		
OC1[C@H](O)CN(OCc2ccccc2)C[C@@H]1O (stereo partly drawn)		> 100 µM	> 100 µM	> 100 µM					> 100 µM		> 100 µM	> 100 µM			> 100 µM	> 100 µM	> 100 µM	> 100 µM		
Cc1cc2sc(C)[n+](CCCOS(=O)(=O)[O-])c2cc1C		> 100 µM	> 100 µM	> 100 µM					> 100 µM		> 100 µM	> 100 µM			> 100 µM	> 100 µM	> 100 µM	> 100 µM		
COc1cc(/C=C2\C(=O)N(c3ccccc3Cl)C(c3ccccc3)S2(=O)=O)cc(OC)c1OC (stereo not drawn)		> 100 µM	> 100 µM	38.3 µM					94.9 µM		> 100 µM	> 100 µM			> 100 µM	> 100 µM	> 100 µM	76.7 µM		
Nc1ccc(CCSSCCc2ccc(N)cc2)cc1		> 100 µM	> 100 µM	63.5 µM					> 62.3 µM		> 100 µM	> 85.2 µM			79.1 µM	> 91.1 µM	> 100 µM	44.6 µM		
COc1ccc(N2C(=O)C3c4[nH]c5ccccc5c4C4CC(C)CC(C)C4C3C2=O)cc1 (stereo not drawn)	> 100 µM		> 100 µM	> 100 µM	> 100 µM	> 100 µM	> 100 µM	> 100 µM	> 100 µM	> 100 µM	> 100 µM			> 100 µM				> 100 µM	> 100 µM	> 100 µM
CSc1sc(=S)sc1C(=O)N(C)c1ccccc1	> 100 µM	> 100 µM	> 100 µM	> 100 µM		> 100 µM	> 100 µM	> 100 µM	> 100 µM	> 100 µM	> 100 µM			> 100 µM				> 100 µM	> 100 µM	
NC(CCC(=O)NC(CSC(=O)N(O)c1ccccc1)C(=O)NCC(=O)O)C(=O)O (stereo not drawn)	> 1000 µM	> 1000 µM	> 1000 µM	> 1000 µM	> 1000 µM	> 1000 µM	> 1000 µM	> 1000 µM	> 1000 µM	> 1000 µM	> 1000 µM	> 1000 µM						> 1000 µM	> 1000 µM	
